Test results published in patent US6849596B1, “Regulatory/unfolding peptides of ezrin” (priority 1999, dated 2005).

How the values were obtained:
[1] = tested on: IgG serum antibody response to Ovalbumin; test: Adjuvant activity: IgG serum antibody response to Ovalbumin in mice; assay type: in vivo; conditions: for IgG response recorded as OD: 50 micrograms Ovalbumin, two weeks, sera 1 to 100; for IgG response recorded as OD then rebased relative to 100 for each control: control = 100
Experimental: Adjuvant Activity of Hepreceptor Peptides Enhancing the IgG Serum Antibody Response to Ovalbumin in Mice
The IgG response in mice two weeks after an injection of 50 micrograms of Ovalbumin plus various concentrations of different hepreceptor peptides was determined. IgG response was measured by Optical Density (OD) of a 1 to 100 dilution of mouse sera in the presence of Ovalbumin.
IgG response recorded as OD
IgG response recorded as OD then data rebased relative to 100 for each control

[2] = tested on: transplanted sarcoma of the uterus SM-322; test: Transplanted mouse sarcoma SM-322 model; assay type: in vivo, CBA mice; conditions: for Percent decrease in tumour volume relative to control: SM-322
Source text: Anticancer Activity of Hepreceptor Peptides on the Growth of Transplanted Sarcoma of the Uterus SM-322 and on Cancer of the Uterine Cervix CUS-5 Performed in CBA Mice Using Rupe312 and Rupe414 as Examples Transplanted mouse sarcoma SM-322 model (endothelial tumour). Primary tumours of the uterus were induced in female mice using 1.2 dimethylhydrazine. A few primary tumours were transplanted into syngeneic mice. The first visible nodules started to appear at the point of transplation after 4 days. The life expectancy of the mice with transplanted tumours was 22-24 days. […] The tumours were introduced as a 0.5 ml of tumour suspension (1 g tumour per 10 ml of Igla medium) and ten mice used in each treatment group. […] The average percent decrease of tumour volume relative to the control group was recorded at three time points. The longevity of the mice in the treatment groups and control groups was compared and the histology of the tumours between control and treatment groups was compared.

[3] = tested on: transplanted cervical cancer CUC-5; test: Transplanted mouse cervical cancer model CUC-5; assay type: in vivo, CBA mice; conditions: for Percent decrease in tumour volume relative to control / Days of life expectancy: CUC-5; for Days of life expectancy: control 47-76
Source text: Anticancer Activity of Hepreceptor Peptides on the Growth of Transplanted Sarcoma of the Uterus SM-322 and on Cancer of the Uterine Cervix CUS-5 Performed in CBA Mice Using Rupe312 and Rupe414 as Examples
Transplanted mouse cervical cancer model CUC-5 (epithelial tumour)
Primary tumours were induced in female mice using methylcholantrene. A few primary turnouts were then auto-transplanted into the uterine cervix. The life expectancy of mice with transplanted tumours was 43 days.
CBA female mice weighed 21.4=/−1.2 g. and were 2-3 months old. The tumours were introduced as a 0.5 ml of tumour suspension (1 g tumour per 10 ml of Igla medium) and ten mice used in each treatment group.
Lyophylised peptide were dissolved in sterile physiological saline immediately before use in three concentrations. 0.5 ml of solution was injected twice weekly into the peritoneum of the mice for the duration of the experiment. Three different concentrations of peptide were used leading to three final doses per injection per mouse of 10, 1.0 and 0.1 micrograms.
The average percent decrease of tumour volume relative to the control group was recorded at three time points. The longevity of the mice in the treatment groups and control groups was compared and the histology of the tumours between control and treatment groups was compared.

activated macrophages = test: Induction of activated macrophages in mice (peritoneal exsudate); assay type: in vivo
Experimental: Groups of three mice (CDAxC57B1)F1 weighing 22-24 g were injected abdominally with each peptide solution of 1.0 microgram of peptide dissolved in 0.5 ml of physiological saline. After 24 hours the animals were killed using neck vertebrae dislocation and 5 ml of Hanks solution was injected into the abdomen. The abdomen was massaged for 30 seconds and then the peritoneal liquid was collected. The collected liquid was filtered using a nylon filter into siliconised tubes containing 1.5 mg/ml EDTA. The number of nucleus containing cells in […] of filtrate were then assessed under microscopic examination using a Nihon hemocytometer. The cells were pelleted by centrifugation for 5 minutes at 800 g, the pellet was resuspended in fetal calf serum, the cell suspension was dropped on to a glass microscope slide and dried then fixed in methanol and stained with Romanovski's colouring agent. Morphological analysis of the cells of the peritoneal exsudate were performed using an Opton optical microscope at 1600 magnifications. The number of lymphocytes, resting macrophages, activated macrophages, granulocytes and other cell types were assessed.

IL-8 = IL-8 production in human WBC; assay type: cell-based; conditions: 48 hour incubation, without peptide 18900
Experimental: The suppressive effect of increasing concentrations of Rupe312, a Hepreceptor peptide, on the expression of IL-8 by human WBC after a 48 hour incubation at 37° C. was detected. IL-8 is a chemotactic factor that is produced in response to inflammatory stimulus which attracts and activates T cells, neutrophils, basophils, granulocytes but not monocyte/macrophages. The inhibition of IL-8 may play a role in the selective activity of Rupe 312 in activating monocytes macrophages. The measurement of IL-8 provides an assay for determining the activity of various Hepreceptor derived peptides.

[4] = tested on: transplanted sarcoma of the uterus SM-322; test: Transplanted mouse sarcoma SM-322 model; assay type: in vivo, CBA mice; conditions: control 12-16
[5] = IP injection 0.01 micrograms per mouse
[6] = IP injection 0.1 micrograms per mouse
[7] = IP injection 1 microgram per mouse
[8] = IP injection 10 micrograms per mouse
[9] = 0.1 Microg/mouse IP twice weekly, Day 8
[10] = 0.1 Microg/mouse IP twice weekly, Day 12
[11] = 1 Microg/mouse IP twice weekly, Day 8
[12] = 1 Microg/mouse IP twice weekly, Day 12
[13] = 10 Microg/mouse IP twice weekly, Day 8
[14] = 10 Microg/mouse IP twice weekly, Day 12
[15] = 0.1 Microg/mouse IP twice weekly
[16] = 10 Microg/mouse IP twice weekly

## KKRRETVERE (Hepreceptor peptide) [Rupe312]
[1]; [5]
  IgG response recorded as OD: 0.68 OD
  IgG response recorded as OD then rebased relative to 100 for each control: 99
[1]; [6]
  IgG response recorded as OD: 0.88 OD
  IgG response recorded as OD then rebased relative to 100 for each control: 128
[1]; [7]
  IgG response recorded as OD: 0.55 OD
  IgG response recorded as OD then rebased relative to 100 for each control: 80
[1]; [8]
  IgG response recorded as OD: 0.44 OD
  IgG response recorded as OD then rebased relative to 100 for each control: 64
[2]; [9]
  Percent decrease in tumour volume relative to control: 61%
[2]; [10]
  Percent decrease in tumour volume relative to control: 34%
[2]; 0.1 Microg/mouse IP twice weekly, Day 15
  Percent decrease in tumour volume relative to control: 59%
[2]; [11]
  Percent decrease in tumour volume relative to control: 67%
[2]; [12]
  Percent decrease in tumour volume relative to control: 32%
[2]; 1 Microg/mouse IP twice weekly, Day 15
  Percent decrease in tumour volume relative to control: 38%
[2]; [13]
  Percent decrease in tumour volume relative to control: 63%
[2]; [14]
  Percent decrease in tumour volume relative to control: 54%
[2]; 10 Microg/mouse IP twice weekly, Day 15
  Percent decrease in tumour volume relative to control: 27%
[2]; both models (SM-322 and CUC-5)
  histology of the tumours: non bleeding ulcerous destruction of the centre of tumours
[3]; [9]
  Percent decrease in tumour volume relative to control: 50%
[3]; [10]
  Percent decrease in tumour volume relative to control: 18%
[3]; 0.1 Microg/mouse IP twice weekly, Day 19
  Percent decrease in tumour volume relative to control: 45%
[3]; [15]
  Days of life expectancy: 42 to 76 days
[3]; [11]
  Percent decrease in tumour volume relative to control: 50%
[3]; [12]
  Percent decrease in tumour volume relative to control: 26%
[3]; 1 Microg/mouse IP twice weekly, Day 19
  Percent decrease in tumour volume relative to control: 49%
[3]; 1 Microg/mouse IP twice weekly
  Days of life expectancy: 47 to 76 days
[3]; [13]
  Percent decrease in tumour volume relative to control: 50%
[3]; [14]
  Percent decrease in tumour volume relative to control: 25%
[3]; 10 Microg/mouse IP twice weekly, Day 19
  Percent decrease in tumour volume relative to control: 49%
[3]; [16]
  Days of life expectancy: 48 to 76 days
[3]; slower growing transplanted cervical cancer
  change in life expectancy: no significant increase (or decrease) in life expectancy was detected
Activated macrophages; 1.0 microgram peptide/mouse
  activity in increasing activated macrophages relative to HEP1: significantly more active than HEP1
Activated macrophages; 1.0 microgram peptide/mouse injected abdominally, after 24 hours, saline 1.9
  Activated macrophages as a percent of total number of cells: 13.9%
IL-8; Rupe312 0.001 micrograms/ml
  IL-8 concentration in culture: 13900 picrograms/ml
IL-8; Rupe312 0.003 micrograms/ml
  IL-8 concentration in culture: 10700 picrograms/ml
IL-8; Rupe312 0.01 micrograms/ml
  IL-8 concentration in culture: 8984 picrograms/ml
IL-8; Rupe312 0.03 micrograms/ml
  IL-8 concentration in culture: 7869 picrograms/ml
IL-8; Rupe312 0.1 micrograms/ml
  IL-8 concentration in culture: 6426 picrograms/ml
[4]; [15]
  Days of life expectancy: 12 to 22 days
[4]; 1 Microg/mouse IP twice weekly
  Days of life expectancy: 12 to 19 days
[4]; [16]
  Days of life expectancy: 12 to 27 days
